One experiment deals with Yeast coa6Δ cells. The experiment in a line: Rescue of respiratory growth of yeast coa6Δ cells in YPGE medium (cell density at 600 nm). It is filed as cell-based, Saccharomyces cerevisiae. The protocol:
FIG. 1 illustrates determination of the median effective dose (ED50) of elesclomol. Yeast coa6Δ cells were cultured in YPGE medium at 37° C. in the presence of increasing concentrations (0.01 nM to 1 μM) of elesclomol (ES). The cell density was measured spectrophotometrically after 58 hours of growth at 600 nm. The data represent the average±SD from three independent measurements.
FIGS. 3A and 3B illustrates elesclomol rescue of respiratory growth of coa6Δ cells is dependent on copper availability. BY4741 WT, FIG. 3A, and coa6Δ, FIG. 3B, cells were cultured in YPGE medium at 37° C. in the presence of 10 nM ES, 20 μM of the copper chelator bathocuproine disulfonic acid (BCS), or a combination of both. The cell density was measured spectrophotoretrically at the indicated time points at 600 nm. The data are representative of two independent experiments.
(§1) Yeast Strains and Culture Conditions. The authenticity of yeast strains was confirmed by PCR as well as by replica plating on dropout plates. Yeast cells were cultured in standard YP growth media including YPD (1% yeast extract, 2% peptone and 2% glucose), YPGal (2% galactose), YPGE (3% glycerol+1% ethanol), or synthetic media (SC glucose). For qualitative growth measurement, 10-fold serial dilutions of overnight cultures were spotted on YPD or YPGE plates and incubated at 30° C. and 37° C. for the indicated period. Growth in liquid media was measured spectrophotometrically at 600 nm.
A number of copper-binding pharmacological agents were tested for their ability to rescue respiratory deficient growth of coa6Δ cells. […] ES rescued the respiratory growth of coa6Δ cells with an ED50 of 0.8 nM (FIG. 1). ES-mediated growth rescue of coa6Δ cells was also observed on solid growth medium containing a non-fermentable carbon. […] To determine the biochemical basis for the observed respiratory rescue of coa6Δ cells, the assembly and activity of CcO-containing mitochondrial respiratory chain supercomplexes was measured by native-polyacrylamide gel electrophoresis blotting and in-gel activity assay, respectively. […]

Another experiment relates to ctr1Δ cells. Kind of experiment: Respiratory growth rescue of ctr1Δ yeast. Format: cell-based, Saccharomyces cerevisiae. Particulars: non-fermentable media, 37° C. The protocol: as §1
ES Rescues Many Different Yeast Mutants with Impaired Copper Metabolism. To test the specificity of ES mediated rescue, a number of yeast mutants of genes required for maintaining cellular and mitochondrial copper homeostasis were shortlisted. Genes were prioritized based on their evolutionary conservation, presence of pathogenic mutations in humans, and/or the existence of a related mouse phenotype (Table 3, shown below). […] Most of the yeast mutants were rescued with ES supplementation, albeit to different degrees, reflecting their distinct roles in cellular and mitochondrial copper homeostasis.

The test system of experiment [1] is mottled-brindled (mo-br) mouse. Kind of experiment: Survival of Menkes (mo-br) mice after subcutaneous injections. Format: in vivo. The protocol:
Kaplan-Meier Survival of mice after subcutaneous injections of ES-Cu(II) on postnatal days 7 and 10. Log-Rank statistical analysis was conducted to assess significance of survival among mo-br mice cohorts. Mo-br mice treated with 3.625 mg/kg/dose.
FIG. 8 illustrates mean body weight gain of mice after subcutaneous injections on postnatal days 7 and 10. Cohorts and number of mice/cohort are designated as follows: WT vehicle (n=13), WT Cu(II)-ES (n=12), mo-br vehicle (n=9), mo-br Cu(II)-ES (n=27), mo-br Cu(II)-2His (n=6), and mo-br ES (n=6). Growth curves are reported as the mean of each cohort±SD measured weekly.
To evaluate the potential of Cu(II)-ES in a mouse model of human copper deficiency disorder, the well-characterized mottled-brindled (mo-br) mouse model (C57BL/6-Atp7a^mo-br/J, Jackson Laboratory Stock #002566) that closely mimics the clinical and biochemical phenotypes of Menkes disease was chosen. Like in humans, these mice are characterized by mutation in ATP7a, which is an X-linked gene and therefore its mutation only affects males.

Experiment [2] concerns Coa6 knockdown zebrafish embryos.
Procedure: Batches of 50 fertilized embryos injected with either translation blocking or mismatch control morpholinos were treated with or without 100 nM ES at 3 hpf, before making observations at the indicated time points (n % 30 for each time point and treatment).
Zebrafish Experiments. […] Wild type AB strain and Ctr1 heterozygous zebrafish were maintained and crossed using standard methods. Embryos were staged and raised in Egg Water at 28.5° C. For drug treatments, embryos from Ctr1 heterozygous crosses were incubated in 10 nM ES diluted in Egg Water beginning at 3 hours post-fertilization (hpf). For imaging live embryos at 48 hpf, representative embryos of each sample were anesthetized in Tricaine and imaging was performed on an Olympus SZX12 stereomicroscope. […] Morpholino-based experiments were performed.

Regarding `CN(NC(=O)CC(=O)NN(C)C(=S)c1ccccc1)C(=S)c1ccccc1` [ES, elesclomol], in the experiment with Yeast coa6Δ cells (10 nM ES with 20 μM BCS), the “ES mediated rescue in the presence of BCS” value was “diminished”. For the same compound, the “potency relative to copper in rescuing the respiratory growth defect” value in the experiment with Yeast coa6Δ cells (ES versus copper) is “at least 1000 times”. For the same compound, the EC50 with Yeast coa6Δ cells (Saccharomyces cerevisiae, YPGE medium, 37° C., 0.01 nM to 1 μM ES, cell density at 600 nm after 58 hours, read-out: ED50 of rescue of respiratory growth) was 0.8 nM. The “rescue of respiratory growth” value with ctr1Δ cells is on record as “higher concentration of ES is required to rescue”. Moreover, the mean survival time in experiment [1] (mouse, in vivo) is 17.0 ± 0.9 days. Further, the “weekly time point by which all mice of the cohort had expired” value in experiment [1] (subcutaneous, postnatal days 7 and 10) is on record as not above 2 week. For the same compound, the pericardial edema result in experiment [2] (100 nM ES) is “prevented pericardial edema”. For the same compound, the “rescue of morphological phenotype score” value in experiment [2] (100 nM ES at 3 hpf, scored at 24, 48, 72, 96 hpf) is given as “rescue with 100 nM ES treatment was observed as early as 48 hpf”. Besides, in experiment [2] (100 nM ES, 72 and 96 hpf), the “heart rate of Coa6 knockdown embryos” value is “significantly increased the heart rate”.

Source of the values: patent US20240285555A1, “COMPOSITIONS FOR THE TREATMENT OF COPPER DEFICIENCY AND METHODS OF USE” (priority 2018, published 2024).
